Results published in publication PMC2573961 (PLoS ONE, 2008).
No end group written: not given here.

Experiments:
ERAP1 [1] = experiment: 40 ng of ERAP1 in 20 mM Tris pH 8 buffer containing 100 mM NaCl; conditions: human, 37°C, up to 1 hr
[2] = tested on: ERAP1 (recombinant, Hi5 insect cells); experiment: purified recombinant ERAP1 in 20 mM Tris pH 8, 100 mM NaCl; conditions: human, 37°C, up to 1 hr
ERAP1 [3] = experiment: 40 ng ERAP1; conditions: human, 37°C, up to 1 hr
ERAP1 [4] = experiment: 7.8 nM of ERAP1; conditions: human, 37°C, up to 1 hr
ERAP1 [5] = experiment: 800 nM ERAP1; conditions: human, 37°C, up to 1 hr
ERAP1 [6] = experiment: ERAP1, trimming rate measurements (pmol/µg ERAP1×sec); conditions: human
ERAP1 [7] = experiment: 1 nM ERAP1; conditions: human, 37°C, up to 1 hr
ERAP1 [8] = experiment: 15.6 nM of ERAP1; conditions: human, 37°C, up to 1 hr
ERAP1 [9] = experiment: purified recombinant ERAP1 (alanine scan); conditions: human
human recombinant ERAP1 = biological target: T1, human recombinant ERAP1 (Homo sapiens, UniProt Q9NZ08); experiment: N-terminus trimming of model peptides by ERAP1, products analysed by reverse-phase HPLC; type: biochemical; conditions: alanine scan, 40 ng of ERAP1, three separate experiments in parallel; RP-HPLC; Figure 3A
T1 construct: we over-expressed human recombinant full-length ERAP1 in insect cell suspension culture; hexa-His (C); myc; made in house; host or cells: Hi5 insect cells (baculovirus; virus made in SF9 cells)
Method: Human recombinant ERAP1 was produced in Hi5 insect cells grown in Excel405™ serum free medium, after infection by baculovirus carrying the ERAP1 gene with a C-terminal hexa-His tag. The enzyme was secreted into the cell medium, which was harvested by centrifugation (3000 rpm, 30 min, 4°C, GSA rotor) in a Sorvall centrifuge. The cell supernatant was subjected to 3 rounds of buffer exchange (10 fold dilution each time) using a large scale diafiltration apparatus versus 5 mM phosphate buffer at pH 7 containing 100 mM NaCl. The supernatant was then concentrated and its composition adjusted to 50 mM phosphate (pH 8), 300 mM NaCl, 10 mM imidazole and immediately loaded onto a HiTrap™ chelating column (Qiagen) that was pre-loaded with Ni(II)SO4. The column was washed with the same buffer containing 20 mM imidazole and the protein was eluted using a 20 mM to 150 mM imidazole gradient. […]
The digestion of model peptides by ERAP1 was followed by analysis of peptide products of the digestion on a reverse phase C18 column (Higgins Analytical 0546-C183). […] The elution was done with a 5% to 40% acetonitrile gradient at 1 ml/min, while following the absorbance at 214 nm or 280 nm. […]
Figure 1 Typical chromatogram of peptide product analysis after ERAP1 digestion. Samples were analyzed by HPLC reverse phase chromatography. […]

T1 sequence (Q9NZ08 1-948 isoform Q9NZ08-2): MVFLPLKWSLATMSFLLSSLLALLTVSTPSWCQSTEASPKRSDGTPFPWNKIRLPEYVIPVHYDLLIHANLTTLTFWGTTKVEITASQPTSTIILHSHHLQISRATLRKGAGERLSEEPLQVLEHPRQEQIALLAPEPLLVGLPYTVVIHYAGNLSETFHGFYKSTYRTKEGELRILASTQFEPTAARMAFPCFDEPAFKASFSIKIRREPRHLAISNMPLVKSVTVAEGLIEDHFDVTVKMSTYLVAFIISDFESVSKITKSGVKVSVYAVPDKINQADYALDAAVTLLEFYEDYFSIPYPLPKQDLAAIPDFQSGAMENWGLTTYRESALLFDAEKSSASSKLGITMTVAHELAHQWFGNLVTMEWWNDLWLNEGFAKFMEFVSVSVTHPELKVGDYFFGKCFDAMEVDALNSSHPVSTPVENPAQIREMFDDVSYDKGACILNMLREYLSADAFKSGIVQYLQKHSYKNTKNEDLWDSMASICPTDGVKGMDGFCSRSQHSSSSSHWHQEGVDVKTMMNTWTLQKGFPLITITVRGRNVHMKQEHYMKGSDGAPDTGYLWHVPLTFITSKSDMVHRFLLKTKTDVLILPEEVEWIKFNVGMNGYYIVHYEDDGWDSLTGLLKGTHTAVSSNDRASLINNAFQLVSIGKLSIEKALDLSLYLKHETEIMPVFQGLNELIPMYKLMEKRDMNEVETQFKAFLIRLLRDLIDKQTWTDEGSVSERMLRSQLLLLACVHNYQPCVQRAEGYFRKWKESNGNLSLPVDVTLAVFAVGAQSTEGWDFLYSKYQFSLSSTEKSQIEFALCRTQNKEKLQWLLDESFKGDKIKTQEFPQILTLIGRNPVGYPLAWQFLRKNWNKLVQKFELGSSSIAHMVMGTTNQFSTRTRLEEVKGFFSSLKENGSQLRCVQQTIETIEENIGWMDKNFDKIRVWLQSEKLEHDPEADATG

In the case of AYWANATRSG, the cleaved bond (ERAP1 [1]) is reported as “A-Y”.
For FYWANATRSG, the cleaved bond (ERAP1 [1]) was “F-Y, 1 hr” and the cleaved bond [2] was “F-Y, 1 hr”.
LAAALSIINFEKL was tested, and the not cleaved (ERAP1 [3]) was “resistant to any trimming after 1 hr” and the not cleaved (ERAP1 [1]) was “resistant to any trimming after 1 hr”.
For LAWANATRSG, the cleaved bond (ERAP1 [1]) was “L-A”.
With LSIINFEAL the cleaved bond (ERAP1 [4]) was “L-S, 1 hr”.
With LSIINFEKL the cleaved bond (ERAP1 [1]) was “L-S, 1 hr” and the cleaved bond (ERAP1 [4]) was “L-S”.
LSIINFEKLAAAL was tested, and the cleaved bond (ERAP1 [1]) was “L-S, 1 hr”.
With LTAEEAVET the not cleaved (ERAP1 [5]) was “completely resistant to trimming after 1 hr with 800 nM ERAP1” and the cleaved bond (ERAP1 [6]) was “L-T”.
LVAFKARKF was tested, and the cleaved bond (ERAP1 [7]) was “L-V, 1 hr”.
LVNVDYSAL was tested, and the cleaved bond (ERAP1 [8]) was “L-V, 1 hr”.
In the case of LVNVDYSKL, the cleaved bond (ERAP1 [8]) is reported as “L-V, 1 hr”.
For LYAANATRSG, the cleaved bond (ERAP1 [1]) was “L-Y”.
For LYWAAATRSG, the cleaved bond (ERAP1 [1]) was “L-Y”.
In the case of LYWANAARSG, the cleaved bond (ERAP1 [1]) is reported as “L-Y”.
LYWANATASG was tested, and the cleaved bond (ERAP1 [6]) was “L-Y” and the not cleaved (ERAP1 [9]) was “Less than 1% trimming”.
With LYWANATASG [LYWANATASG] the “percent N-terminus trimming detected” value (human recombinant ERAP1) was “Less than 1%”.
For LYWANATRAG, the cleaved bond (ERAP1 [1]) was “L-Y”.
With LYWANATRSA the cleaved bond (ERAP1 [1]) was “L-Y”.
LYWANATRSG was tested, and the cleaved bond (ERAP1 [1]) was “L-Y” and the cleaved bond (ERAP1 [9]) was “L-Y”.
With MYWANATRSG the cleaved bond (ERAP1 [1]) was “M-Y”.
